Measured values: US20240368149A1, “ANALOGS OF XANOMELINE” (Terran Biosciences Inc., priority 2023, published 2024)
“And” between values parts separate entries of the source, which are not always exact repeats. Equal values may be shown once.

What was measured:
Format in all cases: in vivo, male Sprague-Dawley (SD) rats
[1] = Rat PK: plasma xanomeline after oral (PO) dosing of xanomeline or xanomeline prodrugs at 10 mg/kg (Example A-7); conditions: analyte xanomeline in plasma, 10 mg/kg of xanomeline
Protocol: (§1) Samples were sent for method optimization and measurement of parent compound (xanomeline) via unique calibration lines and following acceptance QC's. Dose formulation concentrations were also measured, and PK parameters were determined (Cmax (ng/mL), Tmax (hr), Cl (ml/min/kg), Vdss (L/kg), t½ (hr), AUC0-t (ng/mL*hr), AUC0-inf (ng/mL*hr), MRT (hr), Bioavailability (% F) where warranted) using WinNon Lin software. Data (including bioanalytical results and assay performance) were reported in a tabulated format and QC'd.
Compound was dissolved in DMSO:HPCD (20% w/v in water) [10:90] 2 mg API/mL to provide doses of 10 mg API/kg when administered PO in 5 mL/kg dosing volumes.
(§2) The pharmacokinetic properties of the synthesized xanomeline prodrugs after oral administration in a rat model were assessed. The concentration of xanomeline was measured in each rat at various sampling timepoints after oral administration of xanomeline or the synthesized xanomeline prodrugs to rats.
(§3) Dose formulations were made at equivalent concentrations of active compound (xanomeline) adjusted for molecular weight of the compounds. The synthesized xanomeline prodrugs were dosed at 10 mg/kg oral (PO) nominal dose. Nominal doses were used in PK parameter determinations. The parent compound (xanomeline) was dosed at 10 mg/kg oral (PO).

[2] = Rat PK: plasma xanomeline after single subcutaneous (SC) dosing of xanomeline or xanomeline prodrugs at 1 mg/kg (Example A-1); conditions: xanomeline analyte in plasma; for AUC(0-inf): read-out: AUCINF_obs; for half-life: read-out: T½ (converted)
Protocol: A pharmacokinetic (PK) study was performed in three male Sprague-Dawley (SD) rats following subcutaneous (SC) administration of xanomeline or test compounds (prodrugs of xanomeline) at 1 mg/kg. Parent compound (xanomeline) was measured in plasma.
as §1, with “t½(hr),” for “t½ (hr),”, “format” for “format and QC'd.”
• Step 1: A stock solution of the compound(s) were prepared to 1 mg/ml in DMSO • Step 2: A 10,000 ng/mL matched matrix standard was prepared using the stock solution(s) • Step 3: Calibration standards in matched matrix were prepared between 10,000 ng/ml and 0.5 ng/mL using serial dilution • Step 4: QC samples were prepared in matched matrix at 4000, 800, 400, 40 and 10 ng/mL Calibration Standards:
• Step 1: A stock of the IS was diluted to 1 mg/ml in DMSO • Step 2: An ISY is made by diluting the stock to 10 μg/ml in DMSO • Step 3: An ISZ is made by diluting the ISY to 25 ng/ml in 0.1% formic acid in acetonitrile
(§4) • Step 1: Add 10 μL of the standards, QCs and samples to a 96-well plate (extraction plate) • Step 2: To each standard, QC and test sample, add 100 μL of ISZ • Step 3: Sonicate for 2 min then mix the plate for approximately 2 min at 1200 rpm on a plate shaker • Step 4: Centrifuge the plate at 3000 rpm for 5 mins • Step 5: Add 50 μL 0.1% Formic acid in UP H2O to wells of a new 96-well plate • Step 6: Transfer 50 μL extracted sample to relevant position in second 96-well plate • Step 7: Mix at 1200 rpm for 2 minutes • Step 8: Heat seal and analyse on the LC-MS/MS system • Instrument: Xevo TQ-D with CTC Autosampler
• Step 1: A stock solution of the compound(s) were prepared to 1 mg/ml in DMSO • Step 2: A 10,000 ng/mL matched matrix standard was prepared using the stock solution(s) • Step 3: A 2,000 ng/ml matched matrix stock dilution was made from the 10,000 ng/ml stock dilution • Step 4: Standards were prepared at a concentration of 200 ng/ml to 0.01 ng/ml in matched matrix via serial dilution from the second Stock dilution • Step 5: QC samples were prepared in matched matrix at 150, 40, 20, 4 and 0.4 ng/mL Calibration Standards:
as §4, with “min” for “mins”, “formic” for “Formic”, “min” for “minutes”, “TQ-Absolute UHPLC-MS/MS” for “TQ-D with CTC Autosampler”
(§5) Formulation for SC administration: For SC dosing, xanomeline and xanomeline prodrugs were formulated as solution in 10% DMSO/90% HPCD (20% in water) to a concentration of 0.5 mg free metabolite material/mL. This provided a dose of 1 mg free metabolite/kg when administered SC in 2 mL/kg dosing volumes.
as §2, with “subcutaneous” for “oral”
Dose formulations were made at equivalent concentrations of active compound (xanomeline) adjusted for molecular weight of the compounds. The synthesized xanomeline prodrugs were dosed at 1 mg/kg subcutaneous (SC) nominal dose. […]

[3] = Rat PK: plasma xanomeline after subcutaneous (SC) dosing of xanomeline, prodrugs or pamoate salts at 5 mg/kg or 3.5 mg/kg (Example A-2); conditions: parent xanomeline dosed SC; for Tmax / Cmax / AUC(0-inf) / AUC(0-t) / half-life: male, Sprague-Dawley; for AUC(0-inf): read-out: Xanomeline (SC) AUC0-inf; for AUC(0-t): read-out: Xanomeline (SC) AUC0-last; for half-life: read-out: Xanomeline (SC) T1/2 (converted)
Protocol: as §1, with “format.” for “format and QC'd.”
as §5, with “of 2.5 mg free metabolite material/mL or 1.75” for “of 0.5”, “of 5” for “of 1”, “metabolite/kg or 3.5 mg free metabolite/kg, respectively,” for “metabolite/kg”
as §2, with “subcutaneous” for “oral”
as §3, with “5” for “10”, “subcutaneous (SC)” for “oral (PO)”, “dose except for xanomeline oxyisobutyl pivalate chloride prodrug and xanomeline oxypropyl pivalate chloride prodrug, which were dosed at 3.5 mg/kg subcutaneous.” for “dose.”, “subcutaneous (SC).” for “oral (PO).”

[4] = male, Sprague-Dawley, plasma, sc, Mean of animals (Table 3)
[5] = male, Sprague-Dawley, plasma, sc, individual animal (Table 3)

xanomeline methyl hexylcarbonate chloride prodrug
Xanomeline Tlast ([1]; Mean of 3 animals): 2.67 h | Xanomeline Tlast ([1]; individual animal, 10 mg/kg): 1.00 h and 7.00 h

CCCCCCOc1nsnc1C1=CCCN(C)C1 [Xanomeline, 3-hexyloxy-4-(1-methyl-3,6-dihydro-2H-pyridin-5-yl)-1,2,5-thiadiazole]
Tmax ([2]; male, Sprague-Dawley, in vivo, individual animal (Table 3)): 0.25 h | AUC(0-t) [2, 4]: 38.3 ng·h/mL | AUC(0-inf) [2, 4]: 42 ng·h/mL | Cmax ([2]; male, Sprague-Dawley, plasma, sc, Mean of animals (Table 3), read-out: Cmax): 14.4 ng/mL | half-life [2, 4]: 1.85 h | AUC(0-t) [2, 5]: 40.1 ng·h/mL | AUC(0-inf) [2, 5]: 46 ng·h/mL | Cmax ([2]; male, Sprague-Dawley, plasma, sc, individual animal (Table 3), read-out: Cmax): 15.9 ng/mL | half-life [2, 5]: 2.3 h | Tmax ([2]; male, Sprague-Dawley, Mean of animals (Table 3)): 0.25 h | Tlast ([2]; Mean of animals (Table 3)): 7.00 h | AUCINF_obs ([2]; individual animal (Table 3)): 42.9 ng·h/mL and 37.0 ng·h/mL | AUClast ([2]; individual animal (Table 3)): 40.0 ng·h/mL and 34.9 ng·h/mL | Cmax ([2]; individual animal (Table 3)): 15.1 ng/mL and 12.3 ng/mL | Tlast ([2]; individual animal (Table 3)): 7.00 h | T½ ([2]; individual animal (Table 3)): 1.66 h and 1.58 h | Tmax ([3]; in vivo, individual animals): 1 h | Cmax ([3]; plasma, sc, Mean): 43 ng/mL | Tmax ([3]; plasma, sc, Mean): 0.833 h | AUC(0-inf) ([3]; plasma, sc, Mean): 154 ng·h/mL | AUC(0-t) ([3]; plasma, sc, Mean): 171 ng·h/mL | half-life ([3]; plasma, sc, Mean): 1.37 h | Cmax ([3]; plasma, sc, individual animals): 54.6 ng/mL | Tmax ([3]; plasma, sc, individual animals): 0.5 h | AUC(0-inf) ([3]; plasma, sc, individual animals): 185 ng·h/mL | AUC(0-t) ([3]; plasma, sc, individual animals): 180 ng·h/mL | half-life ([3]; plasma, sc, individual animals): 1.5 h | Xanomeline (SC) Tlast ([3]; Mean): 37.3 h | Xanomeline (SC) AUC0-inf ([3]; individual animals): 123 ng·h/mL | Xanomeline (SC) AUC0-last ([3]; individual animals): 213 ng·h/mL and 121 ng·h/mL | Xanomeline (SC) Cmax ([3]; individual animals): 30.0 ng/mL and 44.4 ng/mL | Xanomeline (SC) T1/2 ([3]; individual animals): 1.24 h | Xanomeline (SC) Tlast ([3]; individual animals): 8.00 h (2×) and 96.0 h
